Laboratory results taken from patent publication US20250188084A1, “COMPOUNDS AND METHODS FOR MODULATING CDK9 ACTIVITY” (KRONOS BIO, INC., priority 2020, published 2025).

The molecules below were run against T1, CDK9 (Homo sapiens, UniProt P50750) (assay: CDK9 degradation by HiBit assay, NCIH211 cells). Settings: NCIH211 cells with endogenously tagged N-terminal CDK9-HiBit, 24 hours incubation; read-out: HiBit-NCIH211.2 DC50.
T1 construct: NCIH211 cells with endogenously tagged N-terminal CDK9-HiBit; endogenous in cells; host or cells: NCIH211 cells (endogenous CDK9 locus tagged with HiBit)
T1 sequence (P50750 whole entry): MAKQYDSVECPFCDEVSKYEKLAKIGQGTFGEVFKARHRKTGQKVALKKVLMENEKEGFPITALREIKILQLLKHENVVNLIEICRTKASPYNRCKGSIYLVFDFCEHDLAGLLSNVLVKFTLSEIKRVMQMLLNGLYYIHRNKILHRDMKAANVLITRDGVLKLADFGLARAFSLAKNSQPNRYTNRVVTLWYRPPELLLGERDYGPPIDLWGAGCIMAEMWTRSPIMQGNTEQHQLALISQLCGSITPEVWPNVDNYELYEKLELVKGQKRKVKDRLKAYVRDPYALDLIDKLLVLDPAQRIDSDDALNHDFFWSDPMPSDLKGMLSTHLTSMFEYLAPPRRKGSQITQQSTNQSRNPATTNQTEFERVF
T1 sequence (O60563 whole entry partner): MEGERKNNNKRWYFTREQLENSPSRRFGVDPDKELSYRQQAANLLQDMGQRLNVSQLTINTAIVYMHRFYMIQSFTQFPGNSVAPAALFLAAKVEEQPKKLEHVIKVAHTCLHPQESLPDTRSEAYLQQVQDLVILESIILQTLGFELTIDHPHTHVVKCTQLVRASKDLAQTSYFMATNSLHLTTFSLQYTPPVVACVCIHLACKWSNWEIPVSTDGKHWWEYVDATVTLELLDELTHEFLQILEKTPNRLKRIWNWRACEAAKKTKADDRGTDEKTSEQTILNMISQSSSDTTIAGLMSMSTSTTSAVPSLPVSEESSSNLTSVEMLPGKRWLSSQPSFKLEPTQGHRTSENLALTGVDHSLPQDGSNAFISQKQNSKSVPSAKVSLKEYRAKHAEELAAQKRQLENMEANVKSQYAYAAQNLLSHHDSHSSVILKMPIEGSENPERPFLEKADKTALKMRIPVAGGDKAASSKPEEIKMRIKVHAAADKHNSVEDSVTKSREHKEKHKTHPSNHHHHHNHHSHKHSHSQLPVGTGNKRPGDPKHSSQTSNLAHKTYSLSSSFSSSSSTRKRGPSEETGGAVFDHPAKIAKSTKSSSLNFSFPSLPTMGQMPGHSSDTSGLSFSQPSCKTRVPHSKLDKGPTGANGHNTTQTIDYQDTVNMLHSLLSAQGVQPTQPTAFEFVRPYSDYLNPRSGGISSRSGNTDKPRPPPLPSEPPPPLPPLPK
Format: cell-based
Experimental: Exemplary compounds of the invention were tested for degradation of CDK9. The compounds were tested in 10-dose DC50 duplicate mode with a 3-fold serial dilution starting at 10 μM by HiBit assay (Promega, Inc) as a direct measurement of CDK9 presence, with incubation time of 24 hours using either NCIH211 cells with endogenously tagged N-terminal CDK9-HiBit or NCIH1048 cells with endogenously tagged N-terminal CDK9-HiBit. A control compound (THAL-SNS-032, CAS 2139287-33-3) was tested in 10-dose DC50 mode with 3-fold serial dilution starting at 10 μM. Data was normalized to positive (medium only) and negative (cells with no treatment) controls and curve fits were analyzed with CDK9 as % response vs. log [compound concentration] using a 4-parameter logistic model by GraphPad software. For Table 2: A is <100, B is <1000 C is <10,000, D is >10,000 and ND is Not Determined.
`CCC(CC)c1cc(N[C@H]2CC[C@H](NC(=O)COCCOCCNC(=O)COc3cccc4c3C(=O)N(C3CCC(=O)NC3=O)C4=O)C2)n2nccc2n1` (stereo partly drawn) [Compound 1.0, 2-[2-[2-[[2-[2-(2,6-dioxo-3-piperidyl)-1,3-dioxo-isoindolin-4 yl]oxyacetyl]amino]ethoxy]ethoxy]-N-[(1S,3S)-3-[[5-(1-ethylpropyl)pyrazolo[1,5-a]pyrimidin-7-yl]amino]cyclopentyl]acetamide] was tested, and the DC50 was greater than 10 µM.
`CCC(CC)c1cc(N[C@H]2CC[C@H](NC(=O)COCCOCCOCCNC(=O)COc3cccc4c3C(=O)N(C3CCC(=O)NC3=O)C4=O)C2)n2nccc2n1` (stereo partly drawn) [Compound 2.0, 2-[2-[2-[2-[[2-[2-(2,6-dioxo-3-piperidyl)-1,3-dioxo-isoindolin-4-yl]oxyacetyl]amino]ethoxy]ethoxy]ethoxy]-N-[(1S,3S)-3-[[5-(1-ethylpropyl)pyrazolo[1,5-a]pyrimidin-7-yl]amino]cyclopentyl]acetamide] showed a DC50 greater than 10 µM.
For `CCC(CC)c1cc(N[C@H]2CC[C@H](NC(=O)COCCOCCOCCNC(=O)COc3cccc4c3C(=O)N(C3CCC(=O)NC3=O)C4=O)C2)n2ncc(Cl)c2n1` (stereo partly drawn) [Compound 3.0, N-[(1S,3S)-3-[[3-chloro-5-(1-ethylpropyl)pyrazolo[1,5-a]pyrimidin-7-yl]amino]cyclopentyl]-2-[2-[2-[2-[[2-[2-(2,6-dioxo-3-piperidyl)-1,3-dioxo-isoindolin-4-yl]oxyacetyl]amino]ethoxy]ethoxy]ethoxy]acetamide], the DC50 was greater than 10 µM.
`CCC(CC)c1cc(N[C@H]2CC[C@H](NC(=O)COCCOCCNC(=O)COc3cccc4c3C(=O)N(C3CCC(=O)NC3=O)C4=O)C2)n2ncc(Cl)c2n1` (stereo partly drawn) [Compound 4.0, N-[(1S,3S)-3-[[3-chloro-5-(1-ethylpropyl)pyrazolo[1,5-a]pyrimi-din-7-yl]amino]cyclopentyl]-2-[2-[2-[[2-[2-(2,6-dioxo-3-piperidyl)-1,3-dioxo-isoindolin-4-yl]oxyacetyl]amino]ethoxy]ethoxy]acetamide] was tested, and the DC50 was greater than 10 µM.
`CCC(CC)c1cc(N[C@H]2CC[C@H](NCCOCCOCCOCCNc3cccc4c3C(=O)N(C3CCC(=O)NC3=O)C4=O)C2)n2nccc2n1` (stereo partly drawn) [Compound 7.0, 2-(2,6-dioxo-3-piperidyl)-4-[2-[2-[2-[2-[[(1S,3S)-3-[[5-(1-ethylpropyl)pyrazolo[1,5-a]pyrimidin-7-yl]amino]cyclopentyl]amino]ethoxy]ethoxy]ethoxy]ethylamino]isoindoline-1,3-dione] was tested, and the DC50 was greater than 10 µM.
For `CCC(CC)c1cc(N[C@H]2CC[C@H](NCCOCCOCCOCCOCCNc3cccc4c3C(=O)N(C3CCC(=O)NC3=O)C4=O)C2)n2nccc2n1` (stereo partly drawn) [Compound 8.0, 2-(2,6-dioxo-3-piperidyl)-4-[2-[2-[2-[2-[2-[[(1S,3S)-3-[[5-(1-ethylpropyl)pyrazolo[1,5-a]pyrimidin-7-yl]amino]cyclopentyl]amino]ethoxy]ethoxy]ethoxy]ethoxy]ethylamino]isoindoline-1,3-dione], the DC50 was greater than 10 µM.
`CCC(CC)c1cc(N[C@H]2CC[C@H](NCc3cn(CCOCCOCCNc4cccc5c4C(=O)N(C4CCC(=O)NC4=O)C5=O)nn3)C2)n2nccc2n1` (stereo partly drawn) [Compound 9.0, 2-(2,6-dioxo-3-piperidyl)-4-[2-[2-[2-[4-[[[(1S,3S)-3-[[5-(1-ethylpropyl)pyrazolo[1,5-a]pyrimidin-7-yl]amino]cyclopentyl]amino]methyl]triazol-1-yl]ethoxy]ethoxy]ethylamino]isoindoline-1,3-dione] was tested, and the DC50 was less than 10 µM.
In the case of `CCC(CC)c1cc(N[C@H]2CC[C@H](NCc3cn(CCOCCOCCOCCNc4cccc5c4C(=O)N(C4CCC(=O)NC4=O)C5=O)nn3)C2)n2nccc2n1` (stereo partly drawn) [Compound 10.0, 2-(2,6-dioxo-3-piperidyl)-4-[2-[2-[2-[2-[4-[[[(1S,3S)-3-[[5-(1-ethylpropyl)pyrazolo[1,5-a]pyrimidin-7-yl]amino]cyclopentyl]amino]methyl]triazol-1-yl]ethoxy]ethoxy]ethoxy]ethylamino]isoindoline-1,3-dione], the DC50 is reported as less than 10 µM.
For `CCC(CC)c1cc(N[C@H]2CC[C@H](NCCOCCOCCOCCNc3cccc4c3C(=O)N(C3CCC(=O)NC3=O)C4=O)C2)n2ncc(Cl)c2n1` (stereo partly drawn) [Compound 11.0, 2-(2,6-dioxo-3-piperidyl)-4-[2-[2-[2-[2-[[(1S,3S)-3-[[3-chloro-5-(1-ethylpropyl)pyrazolo[1,5-a]pyrimidin-7-yl]amino]cyclopentyl]amino]ethoxy]ethoxy]ethoxy]ethylamino]isoindoline-1,3-dione], the DC50 was less than 10 µM.
`CCC(CC)c1cc(N[C@H]2CC[C@H](NCCOCCOCCOCCn3cc(CNc4cccc5c4C(=O)N(C4CCC(=O)NC4=O)C5=O)nn3)C2)n2nccc2n1` (stereo partly drawn) [Compound 12.0, 2-(2,6-dioxo-3-piperidyl)-4-[[1-[2-[2-[2-[2-[[(1S,3S)-3-[[5-(1-ethylpropyl)pyrazolo[1,5-a]pyrimidin-7-yl]amino]cyclopentyl]amino]ethoxy]ethoxy]ethoxy]ethyl]triazol-4-yl]methylamino]isoindoline-1,3-dione] was tested, and the DC50 was greater than 10 µM.
In the case of `CCC(CC)c1cc(N[C@H]2CC[C@H](NCCOCCOCCOCCOCCNc3cccc4c3C(=O)N(C3CCC(=O)NC3=O)C4=O)C2)n2ncc(Cl)c2n1` (stereo partly drawn) [Compound 13.0, 4-[2-[2-[2-[2-[2-[[(1S,3S)-3-[[3-chloro-5-(1-ethylpropyl)pyrazolo[1,5-a]pyrimidin-7-yl]amino]cyclopentyl]amino]ethoxy]ethoxy]ethoxy]ethoxy]ethylamino]-2-(2,6-dioxo-3-piperidyl)isoindoline-1,3-dione], the DC50 is reported as less than 10 µM.
For `CCC(CC)c1cc(N[C@H]2CC[C@H](NCCOCCOCCn3cc(COCCOCC(=O)N[C@H](C(=O)N4C[C@H](O)C[C@H]4C(=O)NCc4ccc(-c5scnc5C)cc4)C(C)(C)C)nn3)C2)n2nccc2n1` [Compound 14.0, (2S,4R)-4-hydroxy-N-[[4-(4-methylthiazol-5-yl)phenyl]methyl]-1-[(2S)-3,3-dimethyl-2-[[2-[2-[[1-[2-[2-[2-[[(1S,3S)-3-[[5-(1-ethylpropyl)pyrazolo[1,5-a]pyrimidin-7-yl]amino]cyclopentyl]amino]ethoxy]ethoxy]ethyl]triazol-4-yl]methoxy]ethoxy]acetyl]amino]butanoyl]pyrrolidine-2-carboxamide], the DC50 was greater than 10 µM.
Work on `CCC(CC)c1cc(N[C@H]2CC[C@H](NCCOCCOCCn3cc(CNc4cccc5c4C(=O)N(C4CCC(=O)NC4=O)C5=O)nn3)C2)n2ncc(Cl)c2n1` (some centres unmarked) [Compound 15.0] yielded a DC50 of less than 10 µM.
For `CCC(CC)c1cc(N[C@H]2CC[C@H](NCCOCCOCCOCCn3cc(CNc4cccc5c4C(=O)N(C4CCC(=O)NC4=O)C5=O)nn3)C2)n2ncc(Cl)c2n1` (some centres unmarked) [Compound 16.0], the DC50 was greater than 10 µM.
`CCC(CC)c1cc(N[C@H]2CC[C@H](NCC(C)N3CCN(CCNc4cccc5c4C(=O)N(C4CCC(=O)NC4=O)C5=O)CC3)C2)n2nccc2n1` (stereo partly drawn) [Compound 17.0, 2-(2,6-dioxo-3-piperidyl)-4-[2-[4-[2-[[(1S,3S)-3-[[5-(1-ethylpropyl)pyrazolo[1,5-a]pyrimidin-7-yl]amino]cyclopentyl]amino]-1-methyl-ethyl]piperazin-1-yl]ethylamino]isoindoline-1,3-dione] showed a DC50 of less than 10 µM.
`CCC(CC)c1cc(N[C@H]2CC[C@H](NCCN3CCN(CCOCC(=O)N[C@H](C(=O)N4C[C@H](O)C[C@H]4C(=O)NCc4ccc(-c5scnc5C)cc4)C(C)(C)C)CC3)C2)n2nccc2n1` [Compound 18.0, (2S,4R)-1-[(2S)-2-[[2-[2-[4-[2-[[(1S,3S)-3-[[5-(1-ethylpropyl)pyrazolo[1,5-a]pyrimidin-7-yl]amino]cyclopentyl]amino]ethyl]piperazin-1-yl]ethoxy]acetyl]amino]-3,3-dimethyl-butanoyl]-4-hydroxy-N-[[4-(4-methylthiazol-5-yl)phenyl]methyl]pyrrolidine-2-carboxamide] was tested, and the DC50 was greater than 10 µM.
`CCC(CC)c1cc(N[C@H]2CC[C@H](NCCN3CCN(CCNc4cccc5c4C(=O)N(C4CCC(=O)NC4=O)C5=O)CC3)C2)n2nccc2n1` (stereo partly drawn) [Compound 19.0, 2-(2,6-dioxo-3-piperidyl)-4-[2-[4-[2-[[(1S,3S)-3-[[5-(1-ethylpropyl)pyrazolo[1,5-a]pyrimidin-7-yl]amino]cyclopentyl]amino]ethyl]piperazin-1-yl]ethylamino]isoindoline-1,3-dione] gave a DC50 of less than 10 µM.
`CCC(CC)c1cc(N[C@H]2CC[C@H](NCC(=O)NCCCn3cc(CCOCCNc4cccc5c4C(=O)N(C4CCC(=O)NC4=O)C5=O)nn3)C2)n2nccc2n1` (some centres unmarked) [Compound 20.0] showed a DC50 greater than 10 µM.
For `CCC(CC)c1cc(N[C@H]2CC[C@H](NCC(=O)NCCCc3cn(CCOCCNc4cccc5c4C(=O)N(C4CCC(=O)NC4=O)C5=O)nn3)C2)n2nccc2n1` (some centres unmarked) [Compound 22.0], the DC50 was greater than 10 µM.
With `CCC(CC)c1cc(N[C@H]2CC[C@H](NCC(=O)NCCCc3cn(CCOCCNc4cccc5c4C(=O)N(C4CCC(=O)NC4=O)C5=O)nn3)C2)n2ncc(Cl)c2n1` (some centres unmarked) [Compound 23.0] the DC50 was less than 10 µM.
With `CCC(CC)c1cc(N[C@H]2CC[C@H](NCC(=O)NCCCn3cc(CCOCCNc4cccc5c4C(=O)N(C4CCC(=O)NC4=O)C5=O)nn3)C2)n2ncc(Cl)c2n1` (some centres unmarked) [Compound 24.0] the DC50 was less than 1 µM.
`CCC(CC)c1cc(N[C@H]2CC[C@H](NCC(=O)NCc3cn(CCOCC(=O)N[C@H](C(=O)N4C[C@H](O)C[C@H]4C(=O)NCc4ccc(-c5scnc5C)cc4)C(C)(C)C)nn3)C2)n2nccc2n1` [Compound 25.0] was tested, and the DC50 was greater than 10 µM.
In the case of `CCC(CC)c1cc(N[C@H]2CC[C@H](NCC(=O)NCc3cn(CCOCCOCC(=O)N[C@H](C(=O)N4C[C@H](O)C[C@H]4C(=O)NCc4ccc(-c5scnc5C)cc4)C(C)(C)C)nn3)C2)n2nccc2n1` [Compound 26.0], the DC50 is reported as greater than 10 µM.
